The record followed here is ChEMBL document CHEMBL2380269, “Conformationally restricted homotryptamines. Part 6: indole-5-cycloalkyl methylamines as selective serotonin reuptake inhibitors” (Bioorg Med Chem Lett, 2013).

Test [1] has as its target Sodium-dependent serotonin transporter (Homo sapiens, UniProt P31645). Nature of the test: Displacement of [3H]citalopram from human SERT expressed in HEK293 cell membranes. For orientation: In a radioligand displacement assay an active substance lowers the binding of a labelled ligand.
In test [2] the test system is HEK293. Nature of the test: Ratio of IC50 for human DAT expressed in HEK293 cell membranes to IC50 for human SERT expressed in HEK293 cell membranes. Type of test: cell-based.
In test [3] the target is T1, Sodium-dependent dopamine transporter (Homo sapiens, UniProt Q01959). Nature of the test: Displacement of [3H]WIN-35428 form human DAT expressed in HEK293 cell membranes at 1 uM.
In test [4] the target is T2, Sodium-dependent noradrenaline transporter (Homo sapiens, UniProt P23975). Nature of the test: Displacement of [3H]nisoxetine from human NET expressed in HEK293 cell membranes at 1 uM.
For test [5], the system named is HEK293. Nature of the test: Ratio of IC50 for human NET expressed in HEK293 cell membranes to IC50 for human SERT expressed in HEK293 cell membranes. In kind it is cell-based.
For test [6], the target named is T1, Sodium-dependent dopamine transporter. Nature of the test: Displacement of [3H]WIN-35428 form human DAT expressed in HEK293 cell membranes.
Test [7] concerns the target T2, Sodium-dependent noradrenaline transporter. Nature of the test: Displacement of [3H]nisoxetine from human NET expressed in HEK293 cell membranes.

Sequence of Sodium-dependent serotonin transporter (P31645 whole entry): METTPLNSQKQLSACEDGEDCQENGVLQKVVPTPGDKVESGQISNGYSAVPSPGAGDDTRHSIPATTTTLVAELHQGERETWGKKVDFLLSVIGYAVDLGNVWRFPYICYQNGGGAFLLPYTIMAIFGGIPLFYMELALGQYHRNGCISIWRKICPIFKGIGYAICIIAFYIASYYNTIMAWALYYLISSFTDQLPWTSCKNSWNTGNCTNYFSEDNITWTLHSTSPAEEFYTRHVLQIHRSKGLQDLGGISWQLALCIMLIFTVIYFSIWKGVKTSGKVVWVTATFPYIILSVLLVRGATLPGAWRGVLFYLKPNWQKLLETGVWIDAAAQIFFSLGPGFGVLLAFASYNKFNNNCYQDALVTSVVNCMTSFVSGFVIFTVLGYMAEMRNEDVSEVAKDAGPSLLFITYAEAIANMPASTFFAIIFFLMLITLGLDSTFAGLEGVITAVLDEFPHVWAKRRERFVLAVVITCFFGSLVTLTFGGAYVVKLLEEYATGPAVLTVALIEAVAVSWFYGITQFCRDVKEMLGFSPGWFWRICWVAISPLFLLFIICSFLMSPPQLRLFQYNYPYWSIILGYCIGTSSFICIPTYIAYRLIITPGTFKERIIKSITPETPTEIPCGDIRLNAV
T2 sequence (P23975 whole entry): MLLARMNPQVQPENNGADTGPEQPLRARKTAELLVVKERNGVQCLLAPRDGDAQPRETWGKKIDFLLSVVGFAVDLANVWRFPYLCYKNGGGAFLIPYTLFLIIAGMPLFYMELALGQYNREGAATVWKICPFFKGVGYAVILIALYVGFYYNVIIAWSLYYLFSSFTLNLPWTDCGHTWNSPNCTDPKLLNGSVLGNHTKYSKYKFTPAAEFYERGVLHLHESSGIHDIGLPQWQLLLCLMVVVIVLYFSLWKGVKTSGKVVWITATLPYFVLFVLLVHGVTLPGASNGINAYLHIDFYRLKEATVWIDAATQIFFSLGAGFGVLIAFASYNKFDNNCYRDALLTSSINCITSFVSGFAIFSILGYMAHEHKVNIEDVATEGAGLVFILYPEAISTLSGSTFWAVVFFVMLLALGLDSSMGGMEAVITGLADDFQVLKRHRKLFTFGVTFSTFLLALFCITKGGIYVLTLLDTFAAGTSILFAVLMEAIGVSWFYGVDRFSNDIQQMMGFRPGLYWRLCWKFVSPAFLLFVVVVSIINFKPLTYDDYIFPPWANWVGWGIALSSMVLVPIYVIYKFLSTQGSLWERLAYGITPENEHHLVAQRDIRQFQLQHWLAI
T1 sequence (Q01959 whole entry): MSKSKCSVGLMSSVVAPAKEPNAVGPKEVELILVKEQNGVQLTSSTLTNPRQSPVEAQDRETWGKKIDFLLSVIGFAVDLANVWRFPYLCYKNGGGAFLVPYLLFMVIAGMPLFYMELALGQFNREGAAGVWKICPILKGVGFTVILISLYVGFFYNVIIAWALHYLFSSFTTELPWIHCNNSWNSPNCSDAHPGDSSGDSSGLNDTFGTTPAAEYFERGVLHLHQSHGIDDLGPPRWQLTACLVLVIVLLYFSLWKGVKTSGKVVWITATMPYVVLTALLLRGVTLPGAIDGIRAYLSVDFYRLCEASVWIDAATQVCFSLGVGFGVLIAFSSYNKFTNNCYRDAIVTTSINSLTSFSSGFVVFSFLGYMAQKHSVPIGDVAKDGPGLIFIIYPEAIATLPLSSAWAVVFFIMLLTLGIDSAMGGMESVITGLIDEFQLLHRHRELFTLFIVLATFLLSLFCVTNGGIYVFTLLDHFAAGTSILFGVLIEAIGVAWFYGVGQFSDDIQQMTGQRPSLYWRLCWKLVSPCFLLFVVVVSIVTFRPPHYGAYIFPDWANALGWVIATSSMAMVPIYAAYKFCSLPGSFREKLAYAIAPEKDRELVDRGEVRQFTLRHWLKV

In the case of `CN(C)C[C@H]1CCC[C@H]1c1c[nH]c2ccc(C#N)cc12`, the IC50 (commonly the concentration needed to halve the response being measured) in test [1] amounted to 1.1 nM.

For `CN(C)C[C@@H]1C[C@H]1c1ccc2[nH]cc(C#N)c2c1` (racemic), the Ratio IC50 in the test with HEK293 [2] and in the test with HEK293 [5] was > 100 in each case. Also, the inhibition – broadly, the relative decrease from the control value, in per cent – worked out at 39% in test [3] and 55% in test [4]. Further, the 50% inhibitory concentration (IC50) in test [1] was found to be 6 nM.

Turning to `CN(C)C[C@@H]1C[C@H]1c1ccc2[nH]ccc2c1` (racemic), the IC50 in test [1] is > 1000 nM.

In the case of `CNC[C@H]1CCC[C@H]1c1ccc2[nH]cc(C#N)c2c1` (racemic), the Ratio IC50 in the test on HEK293 [2] and in the test with HEK293 [5] was 10 in each case. The inhibition is 53% in test [3] and 78% in test [4]. Also, the figures for the IC50 in test [6], in test [1] and in test [7] were 660 nM, 64 nM and 510 nM, respectively.

Compound `CCNC[C@@H]1CCC[C@H]1c1ccc2[nH]cc(C#N)c2c1` (racemic) yielded an IC50 in test [1] of 260 nM.

In turn, `CCN(CC)C[C@@H]1CCC[C@H]1c1ccc2[nH]cc(C#N)c2c1` (racemic) yielded an IC50 in test [1] of 710 nM.

For the compound `CN(C)C[C@@H]1CCC[C@H]1c1ccc2[nH]cc(C#N)c2c1` (racemic), the Ratio IC50 in the test on HEK293 [2] and in the test with HEK293 [5] was > 100 throughout. The inhibition is 50% in test [3] and -1.7% in test [4]. The IC50 in test [1] came out at 3.8 nM; in test [7], 8200 nM.

Turning to `CN(C)C[C@H]1CCC[C@H]1c1ccc2[nH]cc(C#N)c2c1` (racemic), the Ratio IC50 with HEK293 [2] and in the test on HEK293 [5] was > 100 throughout. Moreover, the figures for the inhibition in test [3] and in test [4] were 56% and 68%, respectively. In addition, the half-inhibitory concentration (IC50) in test [1] was determined as 18 nM.

On to `CNC[C@@H]1CCC[C@H]1c1ccc2[nH]cc(C#N)c2c1` (racemic), for which the Ratio IC50 in the test with HEK293 [2] and with HEK293 [5] was > 100 throughout. Besides, the values for the inhibition in test [3] and in test [4] were 49% and 16%, respectively. In addition, the figures for the IC50 in test [6], in test [1] and in test [7] were 750 nM, 4.3 nM and 3700 nM, respectively.

Consider `CN(Cc1ccccc1)C[C@@H]1CCC[C@H]1c1ccc2[nH]cc(C#N)c2c1` (racemic), for which the IC50 in test [1] worked out at 140 nM.

As for `CN(C)C[C@@H]1CCC[C@H]1c1ccc2c(c1)c(C#N)cn2C` (racemic), the IC50 in test [1] was 570 nM.

For `N#Cc1c[nH]c2ccc([C@@H]3CCC[C@H]3CN3CCCC3)cc12` (racemic), the half-maximal inhibitory concentration (IC50) in test [1] was found to be 300 nM.

On to `CCN(C)C[C@@H]1CCC[C@H]1c1ccc2[nH]cc(C#N)c2c1` (racemic), for which the IC50 in test [1] is 200 nM.

Take `CN(C)C[C@H]1C[C@@H]1Cc1ccc2[nH]cc(C#N)c2c1` (racemic): the Ratio IC50 in the test with HEK293 [2] and in the test with HEK293 [5] was > 100 in each case. In addition, the inhibition in test [3] was found to be 17%; in test [4], 25%. For the same compound, in test [1], the IC50 was 97 nM.

Consider `CN(C)C[C@H]1C[C@@H]1c1c[nH]c2ccc(C#N)cc12`, for which, in test [1], the IC50 was determined as 0.56 nM.
